Experimental data published in article PMC9211397, “High-Throughput Screening Platform To Identify Inhibitors of Protein Synthesis with Potential for the Treatment of Malaria” (Antimicrobial Agents and Chemotherapy, 2022).
Where “and” joins values, the source holds several entries; their conditions need not be identical. Equal entries are not always repeated. Where two headings read alike, the source gives them in different places.

Key:
[1] = system: asexual-blood-stage P. falciparum; conditions: cited from earlier work
[2] = system: P. falciparum translation (P. falciparum lysate); experiment: P. falciparum in vitro translation (PfIVT) assay, lysate-based, luciferase reporter; assay type: biochemical, Plasmodium falciparum; conditions: for PfIVT inhibition at 30 μM (%): single-point screen; for selectivity index/window, PfIVT compared to HsIVT: HsIVT IC50 over PfIVT IC50
Source text: (§1) Our P. falciparum in vitro translation (PfIVT) assay is built upon previously established assays ([14], [17]) and is summarized in Fig. 1A. In this assay, successful reconstitution of Plasmodium protein translation is reported via synthesis of a luciferase reporter. For PfIVT, two independent untranslated regions (UTRs), previously shown to promote strong levels of translation ([17]), were introduced upstream and downstream of the luciferase. The 5′ UTR from P. falciparum histidine-rich protein 3 (PfHrp3) ([18]) was introduced upstream of the reporter gene, and the 3′ UTR from P. falciparum histidine-rich protein 2 (PfHrp2) gene ([19]) was introduced downstream. For the reporter construct to support our complementary human IVT assay (HsIVT), the 5′ UTR was replaced with an internal ribosome entry site (IRES) from encephalomyocarditis virus (EMCV) ([20]) and the 3′ UTR was replaced with a poly(A) tail ([21]). […] Finally, a 30-bp poly(A) tail, present within the vector and downstream of the luciferase gene, was inserted to enhance mRNA stability ([21]).
(§2) Translationally active P. falciparum or human embryonic kidney (HEK) 293F lysates were supplemented with accessory, helper, amino acid, and energy regeneration solutions (see Materials and Methods for details). In vitro translation reactions were initiated by the addition of purified mRNA to each reaction well. Using this basic assay format, a number of parameters were assessed and optimized, namely, assay temperature, time, mRNA concentration, and reaction volume (summarized in Fig. S2 in the supplemental material). In addition, we compared the luminescence signal of the CBG firefly luciferase with CBG99, derived from the click beetle […] ([18]).
3D7 parasites were synchronized following two rounds of treatment with D-sorbitol (5%), as previously described ([40]). The hematocrit was reduced from 5% (for standard culture) to 1.5 to 2% and cultures were transferred into HYPERflasks (Corning). Fresh medium was added once or twice daily. […] Harvested red blood cells (infected) were lysed by incubation in 0.1% (wt/vol) saponin on ice for 10 min with gentle agitation. Free parasites were harvested by centrifugation (2,800 × g, 10 min, 4°C) and washed 3 times in wash buffer (WB; 100 mM potassium acetate, 2.5 mM magnesium acetate, 45 mM HEPES [pH 7.4], 250 mM sucrose, 2 mM dithiothreitol, and 15 μM leupeptin) to remove lysed red blood cell debris. The resulting pellet was resuspended in 1 volume of WB supplemented with cOmplete EDTA-free protease inhibitor cocktail (Roche; 1 tablet/20 mL) and human RNase A inhibitor (Sigma; 5 U/mL). Parasite lysis was achieved by nitrogen cavitation using a prechilled 45-mL Parr cell disruption vessel (1,500 lb/in^2, 60 min, 4°C). To clarify the lysate, it was centrifuged (10,000 × g, 15 min, 4°C), and the supernatant was collected, transferred into fresh tubes, and centrifuged (30,000 × g, 15 min, 4°C). As a quality assurance step for each lysate, the RNA content of the resulting supernatant was determined using a NanoDrop spectrophotometer (Shimadzu). Supernatants with RNA levels of >250 ng/μL were aliquoted (100 μL), flash frozen in liquid nitrogen, and stored at −80°C.

CBG99 luciferase = CBG99 luciferase (Pyrophorus plagiophthalamus, UniProt Q7M4K1); experiment: Luciferase counterscreen (false-positive counterscreen); assay type: biochemical, click beetle
Experimental: Hits identified in our primary assay screen were assessed for their potential to interfere with the cbg99 luciferase reporter. For this counterscreen, the master mix containing all the components required for translation (as described above) was incubated for 210 min at 32°C, resulting in the in vitro translation of cbg99 luciferase. The produced luciferase was then incubated with test compounds for 5 min prior to the addition of luciferase reaction buffer. […] Hits from the primary screen were assessed as luciferase inhibitors in 8-point dose-dependent assays ranging from 30 μM to 13.7 nM (1:3 dilutions). Levels of luciferase inhibition were determined relative to the positive control.

[3] = molecular target: human translation (HEK 293F lysate); experiment: Human in vitro translation (HsIVT) assay, HEK 293F lysate, luciferase reporter; assay type: biochemical
Source text: as §1, §2
FreeStyle human embryonic kidney (HEK) 293F cells (Thermo Fisher Scientific) were grown in 500-mL polycarbonate Erlenmeyer vented flasks (Corning) containing FreeStyle 293 expression medium (Life Technologies) upon reaching a density of approximately 2 × 10^6. Cells were then centrifuged at 1,000 × g for 10 min at 4°C, the medium was discarded, and the resulting pellet was washed once in buffer II containing 20 U of human placental RNase inhibitor (Sigma-Aldrich) and cOmplete EDTA-free inhibitor cocktail (Roche) before being centrifuged at 2,800 × g for 10 min. Clarified HEK cell lysate was obtained in the same way as described for P. falciparum lysate.
PfIVT and HsIVT reactions (5 μL final volume) were performed in 384-well plates (Corning) containing 50% lysate from cells (either P. falciparum or HEK 293F), 10% amino acid solution (final concentration of 400 μM for each amino acid in 60 mM KOH; biotechrabbit), 10% energy recovery solution (final assay concentrations of 40 mM HEPES [pH 7.4], 1.5 mM ATP, 0.15 mM GTP, […] creatine phosphate, and 40 U/mL creatine phosphokinase), 10% helper solution (final assay concentrations of 200 μM cystine, 2% polyethylene glycol 3000 [PEG 3000], 1 mM spermidine, 0.5 mM folinic acid, and 15 μM leupeptin), 10% supplemental salt solution (22.5 mM HEPES [pH 7.4], 50 mM potassium acetate, 1 mM magnesium acetate, 1 mM DTT, 1 U/mL human placental RNase inhibitor, 0.1 mM leupeptin), and 10% cbg99 luciferase mRNA (3,000 ng/mL). A master mix solution containing all components was prepared on ice prior to assays, and 5 μL was dispensed into wells using an automated Integra VIAFLO 16-channel 12.5-μL pipette.

[4] = P. falciparum Dd2 cell line, read-out: P. falciparum asexual-blood-stage EC50
[5] = read-out: IC50 value (μM) Counterscreen; Pathogen Box hits; weighted mean ± SD of two technical replicates
[6] = P. falciparum 3D7 cell line, read-out: P. falciparum asexual-blood-stage EC50
[7] = Pathogen Box hits, weighted mean ± SD of two technical replicates, read-out: IC50 value (μM) HsIVT
[8] = Pathogen Box hits, 8-point, weighted mean ± SD of two technical replicates, read-out: IC50 value (μM) PfIVT
[9] = Pandemic Box hits, weighted mean ± SD of two technical replicates, read-out: IC50 value (μM) HsIVT
[10] = Pandemic Box hits, 8-point, weighted mean ± SD of two technical replicates, read-out: IC50 value (μM) PfIVT
[11] = Pandemic Box hits; weighted mean ± SD of two technical replicates; read-out: IC50 value (μM) Counterscreen
[12] = Pathogen Box hits; weighted mean ± SD of two technical replicates; read-out: IC50 value (μM) Counterscreen

Chain of CBG99 luciferase (Q7M4K1 entry or part of it): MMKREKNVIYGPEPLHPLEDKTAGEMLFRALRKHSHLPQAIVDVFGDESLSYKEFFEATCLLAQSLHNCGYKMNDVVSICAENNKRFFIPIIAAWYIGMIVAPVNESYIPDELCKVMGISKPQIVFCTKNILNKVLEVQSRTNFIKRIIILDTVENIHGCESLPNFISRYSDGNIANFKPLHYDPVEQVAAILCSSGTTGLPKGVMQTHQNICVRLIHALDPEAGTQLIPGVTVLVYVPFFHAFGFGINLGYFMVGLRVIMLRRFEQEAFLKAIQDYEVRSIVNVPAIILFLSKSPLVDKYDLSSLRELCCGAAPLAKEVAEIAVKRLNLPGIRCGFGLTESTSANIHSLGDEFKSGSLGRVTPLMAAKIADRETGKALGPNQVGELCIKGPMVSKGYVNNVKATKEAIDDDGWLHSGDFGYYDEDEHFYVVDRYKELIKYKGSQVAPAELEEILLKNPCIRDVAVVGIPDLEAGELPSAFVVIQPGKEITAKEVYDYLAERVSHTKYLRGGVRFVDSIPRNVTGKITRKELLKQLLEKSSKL

Row | SMILES | PfIVT inhibition at 30 μM (%) ([2]; Pandemic Box) | IC50 (CBG99 luciferase; [5]) | EC50 [1, 6] [µM] | IC50 [3, 7] [µM] | selectivity index/window, PfIVT compared to HsIVT [2] [fold] | IC50 [2, 8] [µM] | IC50 ([2]; Table 3, read-out: PfIVT IC50) [µM] | PfIVT inhibition at 30 μM (%) ([2]; Pathogen Box) | also measured
1 | Cc1ccc(NC(=O)c2cc(Cl)ccc2O)cc1 [MMV1578897] | 93.4 | – | – | – | – | – | – | – | EC50 [1, 4]: 5 µM
2 | Cc1ccc2c(c1C)NC(=O)C21NN=C(c2ccccc2)S1 (centres unmarked) [MMV019189] | – | 7 µM and > 30 µM | 0.75 | 7.7 ± 0.3 | ≥ 30 | 0.03 ± 0.009 | 0.03 ± 0.009 | 84.4 | –
3 | C[C@@H]1C[C@H](C)C[C@H](C)[C@@H](O)CC(=O)O[C@H]([C@@H]2CCC[C@H]2C(=O)O)C/C=C/C=C(/C#N)[C@H](O)[C@@H](C)C1 [Borrelidin, borrelidin, reference compound] | – | – | – | – | – | – | – | – | EC50 ([1]; ref 50 (supplement numbering), read-out: EC50 values, µM PfABS (Table S1)): 0.002 µM; IC50 ([2]; established inhibitors of protein translation, read-out: IC50 values, µM PfIVT (Table S1)): 1.2 µM
4 | O=C(NCCN1CCCC1)c1cc(NCCCCN2CCC(F)(F)CC2)nc2ccc(Cl)cc12 [MMV667494] | – | > 30 µM | 0.01 | > 30 | ≥ 30 | 0.3 ± 0.09 | 0.3 ± 0.09 | 97.7 | –
5 | O=C(Nc1c(O)cccc1-c1nc2c(C(=O)O)cccc2o1)c1cc(-c2ccccc2)on1 [MMV676008] | – | 21 ± 0.6 µM | > 20 | 12 ± 0.4 | ≥ 30 | 0.4 ± 0.08 | 0.4 ± 0.08 | 74.9 | EC50 ([1]; Table 3 footnote: 3D7, read-out: EC50 against P. falciparum (text)): > 25 µM; IC50 ([2]; read-out: PfIVT IC50 (text)): 0.04 µM
6 | Nc1nc(NC2Cc3ccc(F)cc3C2)nc(N2CCCCC2)n1 (centres unmarked) [MMV1580839] | 73.3 | – | – | – | – | – | 0.8 ± 0.08 | – | IC50 (CBG99 luciferase; read-out: IC50 value (μM) Counterscreen; Pandemic Box hits; weighted mean ± SD of two technical replicates): 8.3 ± 0.08 µM; EC50 [1, 4]: 5 µM; IC50 [3, 9]: 7.6 ± 0.12 µM; IC50 ([3]; read-out: HsIVT IC50 (text)): 8 µM; PfIVT IC50 (μM) [2]: submicromolar potency; IC50 [2, 10]: 0.8 ± 0.08 µM
7 | O=C(NCCN1CCCC1)c1cc(NCCN2CCOCC2)nc2ccc(Cl)cc12 [MMV634140] | – | > 30 µM | 0.09 | > 30 | – | 2.9 ± 0.09 | 3 ± 0.09 | 88.4 | EC50 ([1]; asexual-blood-stage P. falciparum, Table 3 footnote: 3D7, read-out: ABS EC50 (text)): 0.041 µM
8 | O=C(Nc1ccc(C(F)(F)F)c(C(F)(F)F)c1)c1cc(Cl)ccc1O [MMV687807] | – | 25 ± 0.8 µM | 1.8 | 0.5 ± 0.006 | ≤ 5 | 0.09 ± 0.007 | 0.09 ± 0.007 | 95.1 | –
9 | O=C(O)c1cc(-c2ccc(Br)cc2)nc2ccc(Cl)cc12 [MMV247764] | 63.2 | – | – | – | – | – | – | – | IC50 (CBG99 luciferase; [11]): 3.2 ± 0.06 µM; IC50 [3, 9]: 23 ± 0.2 µM; IC50 [2, 10]: 14 ± 0.7 µM
10 | C(=C\c1nc2ccccc2[nH]1)/c1ccc2c(c1)OCO2 [MMV1582495] | 89.9 | – | – | – | – | – | – | – | IC50 (CBG99 luciferase; [11]): 1.7 ± 0.08 µM; IC50 [3, 9]: 3.1 ± 0.04 µM; IC50 [2, 10]: 0.6 ± 0.07 µM
11 | COc1cc(C2=NCCN2)ccc1-c1cn(-c2cccc(C3=NCCN3)c2)nn1 [MMV688407] | – | – | – | 5.2 ± 0.02 | – | 6 ± 0.09 | – | 98.7 | IC50 (CBG99 luciferase; [12]): > 30 µM
12 | COc1cc(C2=NCCN2)cc2cc(-c3ccc(C4=NCCN4)cc3)oc12 [MMV688362] | – | – | – | 5.6 ± 0.04 | – | 2.8 ± 0.08 | – | 93.5 | IC50 (CBG99 luciferase; [12]): > 30 µM
